Experimental data: patent US8541572B2

The molecules below were run on TNF-α production in LPS-stimulated human whole blood (assay: Inhibition of TNF-α production from human whole blood (hWBA)). Conditions: Homo sapiens, IC50 for inhibition of TNF-α production, LPS-stimulated human whole blood; read-out: hWBA.
Type: cell-based

Compared with `COc1ccc2c(c1)C(=O)N(C[C@@]1(C#Cc3ccc(-c4cnccc4OC)nc3)NC(=O)NC1=O)C2` [Compound 1105], `COc1ccc2c(c1)C(=O)N(C[C@@]1(C#Cc3ccc(-c4ccc(F)cc4O)nc3)NC(=O)NC1=O)C2` [Compound 1316] is 1.8-fold higher in IC50: 5380 nM for the first, 9460 nM for the second.

`COc1ccc2c(c1)C(=O)N(C[C@@]1(C#Cc3ccc(-n4cnc(CCNC(C)=O)c4)nc3)NC(=O)NC1=O)C2` [Compound 1130] and `COc1ccc2c(c1)C(=O)N(C[C@@]1(C#Cc3ccc(N4CCCCC4)nc3)NC(=O)NC1=O)C2` [Compound 1509] are within 1.5-fold of each other in IC50: 524 nM for the first, 514 nM for the second.

Compared with `COc1ccc2c(c1)C(=O)N(C[C@@]1(C#Cc3ccc(C4=NCCN4)c(C)c3)NC(=O)NC1=O)C2` [Compound 1140], `COc1ccc2c(c1)C(=O)N(C[C@@]1(C#Cc3ccc(-n4ccnc4)cc3)NC(=O)NC1=O)C2` [Compound 1160] is 1.6-fold higher in IC50: 504 nM for the first, 786 nM for the second. The first is the more potent here.

Going from `COc1ccc2c(c1)C(=O)N(C[C@@]1(C#Cc3ccc(-n4cncn4)cc3)NC(=O)NC1=O)C2` [Compound 1170] to `COc1ccc2c(c1)C(=O)N(C[C@@]1(C#Cc3nc(-c4cccc(C#N)c4)ccc3OC)NC(=O)NC1=O)C2` [Compound 1501], the IC50 rises from 1140 nM to 1e+06 nM (880-fold).

`COc1ccc2c(c1)C(=O)N(CC1(C#Cc3cccc4c3CCC43NC(=O)NC3=O)NC(=O)NC1=O)C2` (stereo not shown) [Compound 1318] and `COc1ccc(N2CCC2=O)nc1C#C[C@]1(CN2Cc3ccc(OC)c(F)c3C2=O)NC(=O)NC1=O` [Compound 1508] cannot be ordered by IC50: > 1000 nM for the first, 1170 nM for the second.

With `COc1ccc2c(c1F)C(=O)N(C[C@@]1(C#Cc3ccc(C(CN)N4CCC(NC(=O)OC(C)(C)C)C4)cc3)NC(=O)NC1=O)C2` (stereo partly shown) [Compound 1702] the IC50 was 303 nM.

Same assay, conditions: Homo sapiens, read-out: hWBA (nM)

`COc1ccc2c(c1F)C(=O)N(C[C@@]1(C#Cc3ccc(C4(C#N)CCN(C)CC4)cc3)NC(=O)NC1=O)C2` [Compound 1313] was tested, and the IC50 was 669 nM.

Same assay, conditions: IC50 for inhibition of TNF-α production, LPS-stimulated human whole blood

With `COc1ccc2c(c1)C(=O)N(C[C@@]1(C#Cc3ccc(-c4cccc(Cl)c4O)nc3)NC(=O)NC1=O)C2` [Compound 1315] the “hWBA (nM)” value was “Inactive”.

Same assay, conditions: IC50 for inhibition of TNF-α production, LPS-stimulated human whole blood; read-out: hWBA

In order of falling IC50:
1. COc1ccc2c(c1)C(=O)N(C[C@@]1(C#Cc3nc(-c4cnc(N(C)C)nc4)ccc3OC)NC(=O)NC1=O)C2 [Compound 1510]  10000 nM
2. COc1ccc2c(c1)C(=O)N(C[C@@]1(C#Cc3nc(N4C(=O)CCC4C)ccc3OC)NC(=O)NC1=O)C2 (stereo partly shown) [Compound 1506]  9540 nM
3. COc1ccc2c(c1)C(=O)N(C[C@@]1(C#Cc3nc(-c4ccc(S(=O)(=O)NC5CC5)cc4)ccc3OC)NC(=O)NC1=O)C2 [Compound 1512]  7040 nM
4. COCCN1CCN(c2ccc(OC)c(C#C[C@]3(CN4Cc5ccc(OC)cc5C4=O)NC(=O)NC3=O)n2)CC1 [Compound 1507]  5710 nM
5. COc1ccc2c(c1)C(=O)N(C[C@@]1(C#Cc3nc(N4CC[C@H](O)C4=O)ccc3OC)NC(=O)NC1=O)C2 [Compound 1504]  3590 nM
6. COc1ccc2c(c1)C(=O)N(C[C@@]1(C#Cc3ccc(-c4cccc(C)c4O)nc3)NC(=O)NC1=O)C2 [Compound 1300]  3500 nM
7. COc1ccc2c(c1)C(=O)N(C[C@@]1(C#Cc3ccc(-c4cnccc4C)nc3)NC(=O)NC1=O)C2 [Compound 1100]  2390 nM
8. COc1ccc2c(c1)C(=O)N(C[C@@]1(C#Cc3nc(-c4n[nH]c(=O)n4C4CCN(C)CC4)ccc3OC)NC(=O)NC1=O)C2 [Compound 1900]  2190 nM
9. COc1ccc2c(c1)C(=O)N(C[C@@]1(C#Cc3nc(-c4ccc(N5CCNCC5)nc4)ccc3OC)NC(=O)NC1=O)C2 [Compound 1511]  2050 nM
10. COc1ccc2c(c1)C(=O)N(C[C@@]1(C#Cc3ccc(N4CCNC4=O)cc3)NC(=O)NC1=O)C2 [Compound 1150]  1620 nM
11. CCN1CCN(C(=O)C2CC(=O)N(c3ccc(C#C[C@]4(CN5Cc6ccc(OC)cc6C5=O)NC(=O)NC4=O)cc3)C2)CC1 (stereo partly shown) [Compound 1319]  940 nM
12. COc1ccc2c(c1F)C(=O)N(C[C@@]1(C#Cc3cc(F)cnc3Cl)NC(=O)NC1=O)C2 [Compound 1312]  935 nM
13. COc1ccc2c(c1)C(=O)N(C[C@@]1(C#Cc3ccc(-c4ccc(C)nc4O)nc3)NC(=O)NC1=O)C2 [Compound 1301]  766 nM
14. COc1ccc2c(c1)C(=O)N(C[C@@]1(C#Cc3ccc(-c4c(C)n[nH]c4N)cc3)NC(=O)NC1=O)C2 [Compound 1303]  488 nM
15. COc1ccc2c(c1)C(=O)N(C[C@@]1(C#Cc3ccc(-n4cnc(CCNC(C)=O)c4)cc3)NC(=O)NC1=O)C2 [Compound 1120]  453 nM
16. COc1ccc2c(c1)C(=O)N(C[C@@]1(C#Cc3cncc(-c4ccc(O)c(-c5cn[nH]c5)n4)c3)NC(=O)NC1=O)C2 [Compound 1707]  374 nM
17. COc1ccc2c(c1F)C(=O)N(C[C@@]1(C#Cc3ccc4c(c3)C3(CC4)NC(=O)NC3=O)NC(=O)NC1=O)C2 (stereo partly shown) [Compound 1304]  367 nM
18. COc1ccc2c(c1)C(=O)N(C[C@@]1(C#Cc3ccc(-c4ncccc4OC(=O)C(C)(C)C)cc3)NC(=O)NC1=O)C2 [Compound 1008]  342 nM
19. COc1ccc2c(c1)C(=O)N(C[C@@]1(C#Cc3ccc(C(CN)N4CCC(NC(=O)OC(C)(C)C)C4)cc3)NC(=O)NC1=O)C2 (stereo partly shown) [Compound 1703]  316 nM
20. COc1ccc2c(c1)C(=O)N(C[C@@]1(C#Cc3ccc(Nc4c(N)c(=O)c4=O)cc3)NC(=O)NC1=O)C2 [Compound 1308]  306 nM
21. COc1ccc2c(c1)C(=O)N(C[C@@]1(C#Cc3ccc(C(CN)N4CCC(N)C4)cc3)NC(=O)NC1=O)C2 (stereo partly shown) [Compound 1705]  233 nM
22. COc1ccc2c(c1)C(=O)N(C[C@@]1(C#Cc3ccc(C4(CNS(C)(=O)=O)NC(=O)NC4=O)cc3)NC(=O)NC1=O)C2 (stereo partly shown) [Compound 1110]  176 nM
23. COc1ccc2c(c1)C(=O)N(C[C@@]1(C#Cc3ccc(Nc4c(NCCN5CCOCC5)c(=O)c4=O)cc3)NC(=O)NC1=O)C2 [Compound 1306]  169 nM
24. COc1ccc2c(c1)C(=O)N(C[C@@]1(C#Cc3ccc(Nc4c(NCCN(C)C)c(=O)c4=O)cc3)NC(=O)NC1=O)C2 [Compound 1307]  161 nM
25. CCN1CCN(C(=O)C2CCC(=O)N2c2ccc(C#C[C@]3(CN4Cc5ccc(OC)c(F)c5C4=O)NC(=O)NC3=O)cc2)CC1 (stereo partly shown) [Compound 1903]  152 nM
26. COc1ccc2c(c1F)C(=O)N(C[C@@]1(C#Cc3ccc(N4C(=O)NC5(CC5)C4=O)c(F)c3)NC(=O)NC1=O)C2 [Compound 1317]  148 nM
27. COc1ccc2c(c1F)C(=O)N(C[C@@]1(C#Cc3ccc(N4CCNCC4)cc3)NC(=O)NC1=O)C2 [Compound 1706]  118 nM
28. CCN1CCN(C(=O)C2CCC(=O)N2c2ccc(C#C[C@]3(CN4Cc5ccc(OC)cc5C4=O)NC(=O)NC3=O)cc2)CC1 (stereo partly shown) [Compound 1901]  113 nM
29. COc1ccc2c(c1F)C(=O)N(C[C@@]1(C#Cc3ccc(C(CN)N4CCC(N)C4)cc3)NC(=O)NC1=O)C2 (stereo partly shown) [Compound 1704]  109 nM
30. COc1ccc2c(c1F)C(=O)N(C[C@@]1(C#Cc3ccc(-c4ncccc4O)cc3)NC(=O)NC1=O)C2 [Compound 1010]  96 nM
31. CCN1CCN(/C(=N\O)c2ccc(C#C[C@]3(CN4Cc5ccc(OC)c(F)c5C4=O)NC(=O)NC3=O)cc2F)[C@@H](C)C1 [Compound 1311]  69 nM
32. COc1ccc2c(c1F)C(=O)N(C[C@@]1(C#Cc3ccc(-c4nc(-c5cnn(C)c5)ccc4OC(=O)C(C)(C)C)c(F)c3)NC(=O)NC1=O)C2 [Compound 1006]  68.5 nM
33. COc1ccc2c(c1F)C(=O)N(C[C@@]1(C#Cc3ccc(/C(=N/O)N4CCNC[C@@H]4C)c(F)c3)NC(=O)NC1=O)C2 [Compound 1309]  42 nM
